pIC50: −log10 of the molar value. In brackets after ≈: the same amount, converted by molar mass. Activity calls are given as the source filed them. No cut-off for these calls is given here.
Legend:
Cholinesterase [1] = biological target: Cholinesterase (Equus caballus, UniProt P81908); assay: Inhibition of horse serum BChE using BTC iodide as substrate preincubated for 5 mins followed by substrate addition measured after 2 mins by Ellman's method
[2] = Solubility of compound in FaSSIF incubated for 24 hrs by HPLC analysis; format: ADME
[3] = Metabolic stability in human liver microsomes assessed as compound remaining at 2 uM measured after 12.8 mins by LC-MS/MS analysis; format: ADME, Microsome; settings: read-out: Activity
[4] = Acute toxicity in ICR mouse assessed as animal death at 1 g/kg, IG; settings: in vivo, po, 1000 mg/kg
[5] = Acute toxicity in ICR mouse assessed as animal growth at 1 g/kg, IG; settings: in vivo, po, 1000 mg/kg
PC-12 [6] = assay: Neuroprotective activity in rat PC12 cells assessed as cell viability pretreated for 2 hrs followed by H2O2 addition measured after 24 hrs by MTT assay; format: functional, cell-based; settings: time 26.0 hrs
HT-22 [7] = assay: Neuroprotective activity against glutamate-induced excitotoxicity in mouse HT-22 cells assessed as cell viability at 1 to 10 uM pretreated for 1 hr followed by glutamate addition measured after 24 hrs by MTT assay; format: functional, cell-based; settings: dose 1-10 µM, time 25.0 hrs
Cholinesterase [8] = biological target: Cholinesterase (Homo sapiens, UniProt P06276); assay: Inhibition of human BChE using BTC iodide as substrate preincubated for 5 mins followed by substrate addition measured after 2 mins by Ellman's method
Chain of Cholinesterase (Homo sapiens, UniProt P06276) (P06276 whole entry): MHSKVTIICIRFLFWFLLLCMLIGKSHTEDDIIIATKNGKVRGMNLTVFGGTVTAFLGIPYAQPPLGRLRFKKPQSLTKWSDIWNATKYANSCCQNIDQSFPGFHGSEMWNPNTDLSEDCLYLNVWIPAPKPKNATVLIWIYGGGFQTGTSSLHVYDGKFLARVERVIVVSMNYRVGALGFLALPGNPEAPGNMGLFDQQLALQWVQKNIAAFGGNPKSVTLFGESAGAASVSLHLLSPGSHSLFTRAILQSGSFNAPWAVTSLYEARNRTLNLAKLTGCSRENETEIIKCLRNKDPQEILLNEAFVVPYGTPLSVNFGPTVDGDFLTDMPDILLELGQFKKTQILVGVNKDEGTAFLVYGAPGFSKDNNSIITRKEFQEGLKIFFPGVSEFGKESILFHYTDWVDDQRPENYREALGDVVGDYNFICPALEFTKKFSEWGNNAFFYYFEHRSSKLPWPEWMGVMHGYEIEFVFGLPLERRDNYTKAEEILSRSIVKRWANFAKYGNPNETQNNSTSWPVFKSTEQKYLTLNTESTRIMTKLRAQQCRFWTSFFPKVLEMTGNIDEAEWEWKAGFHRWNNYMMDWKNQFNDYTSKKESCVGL

HT-22 [9] = assay: Cytotoxicity against mouse HT-22 cells assessed as survival rate at 100 uM incubated for 24 hrs by MTT assay relative to control; format: functional; settings: read-out: Survival
[10] = Metabolic stability in human liver microsomes assessed as compound metabolism at 2 uM measured for 60 mins by LC-MS/MS analysis; format: ADME, Microsome; settings: read-out: Drug metabolism
[11] = Permeability of compound at 50 ug/ml incubated for 18 hrs by PAMPA; format: ADME; settings: dose 50 µg/ml, read-out: permeability
[12] = Cytotoxicity against human L02 cells assessed as survival rate at 100 uM incubated for 24 hrs by MTT assay relative to control; format: toxicity, cell-based; settings: read-out: Survival
PC-12 [13] = assay: Cytotoxicity against rat PC12 cells assessed as survival rate at 100 uM incubated for 24 hrs by MTT assay relative to control; format: functional; settings: read-out: Survival
SH-SY5Y [14] = assay: Cytotoxicity against human SH-SY5Y cells assessed as survival rate incubated for 24 hrs by MTT assay; format: functional, cell-based
BV-2 [15] = assay: Cytotoxicity against mouse BV-2 cells assessed as survival rate incubated for 24 hrs by MTT assay; format: functional, cell-based; settings: BV-2, 24 h
SH-SY5Y [16] = assay: Cytotoxicity against human SH-SY5Y cells assessed as survival rate at 100 uM incubated for 24 hrs by MTT assay relative to control; format: functional; settings: read-out: Survival
BV-2 [17] = assay: Cytotoxicity against mouse BV-2 cells assessed as survival rate at 100 uM incubated for 24 hrs by MTT assay relative to control; format: functional; settings: read-out: Survival
SH-SY5Y [18] = assay: Neuroprotective activity against amyloid beta (1 to 42)-induced neuronal death in human SH-SY5Y cells assessed as cell viability pretreated for 1 hr followed by amyloid beta (1 to 42) addition measured after 24 hrs by MTT assay; format: functional, cell-based; settings: dose 1-10 µM, time 25.0 hrs
[19] = Tmax in Sprague-Dawley rat at 10 mg/kg, po measured for 1 to 1440 mins by LC-MS/MS analysis; format: ADME, organism-based; settings: in vivo, time 1-1440 min
[20] = AUC (0 to t) in Sprague-Dawley rat at 10 mg/kg, po measured for 1 to 1440 mins by LC-MS/MS analysis; format: ADME, organism-based; settings: in vivo, time 1-1440 min
[21] = MRT (infinity) in Sprague-Dawley rat at 10 mg/kg, po measured for 1 to 1440 mins by LC-MS/MS analysis; format: ADME, organism-based; settings: in vivo, time 1-1440 min
[22] = Oral bioavailability in Sprague-Dawley rat at 10 mg/kg measured for 1 to 1440 mins by LC-MS/MS analysis; format: ADME, organism-based; settings: in vivo, time 1-1440 min
[23] = AUC (0 to infinity) in Sprague-Dawley rat at 10 mg/kg, po measured for 1 to 1440 mins by LC-MS/MS analysis; format: ADME, organism-based; settings: in vivo, time 1-1440 min
[24] = Half life in Sprague-Dawley rat at 10 mg/kg, po measured for 1 to 1440 mins by LC-MS/MS analysis; format: ADME, organism-based; settings: in vivo, time 1-1440 min
[25] = Cmax in Sprague-Dawley rat at 10 mg/kg, po measured for 1 to 1440 mins by LC-MS/MS analysis; format: ADME, organism-based; settings: in vivo, po, 10 mg/kg, time 1-1440 min
Mus musculus [26] = assay: Cognitive enhancing effect in Amyloid beta (1 to 42)-treated ICR mouse assessed as reduction in trajectory uncertainty at 10 mg/kg, po administered daily measured after 7 to 12 days by Morris water maze test; format: functional, organism-based; settings: time 7-12 day
Mus musculus [27] = assay: Cognitive enhancing effect in Amyloid beta (1 to 42)-treated ICR mouse assessed as shorter arrival time at 10 mg/kg, po administered daily measured after 7 to 12 days by Morris water maze test; format: functional, organism-based; settings: time 7-12 day

Chain of Cholinesterase (Equus caballus, UniProt P81908) (P81908 whole entry): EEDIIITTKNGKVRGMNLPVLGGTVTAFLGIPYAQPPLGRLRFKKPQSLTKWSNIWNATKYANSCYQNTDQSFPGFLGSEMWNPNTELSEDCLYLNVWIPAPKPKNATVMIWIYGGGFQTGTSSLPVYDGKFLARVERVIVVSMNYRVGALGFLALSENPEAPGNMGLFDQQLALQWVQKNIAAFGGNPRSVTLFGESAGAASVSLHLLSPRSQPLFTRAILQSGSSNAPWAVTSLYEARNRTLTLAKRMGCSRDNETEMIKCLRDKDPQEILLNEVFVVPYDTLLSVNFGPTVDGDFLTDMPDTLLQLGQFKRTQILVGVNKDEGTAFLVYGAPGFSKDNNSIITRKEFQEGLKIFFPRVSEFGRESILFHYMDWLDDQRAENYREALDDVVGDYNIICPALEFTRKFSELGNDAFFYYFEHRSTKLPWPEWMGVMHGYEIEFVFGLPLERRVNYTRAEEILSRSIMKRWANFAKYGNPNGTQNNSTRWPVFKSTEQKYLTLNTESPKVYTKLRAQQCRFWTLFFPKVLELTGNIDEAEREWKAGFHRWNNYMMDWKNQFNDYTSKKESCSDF

Structure (SMILES) | pIC50 (Cholinesterase [1]) | solubility at 24 h [2] | further results
Nc1nonc1-c1nc2ccccc2n1CC(=O)Nc1cccnc1 | 6.81 | 373 µM (≈ 125 µg/mL) | –
Nc1nonc1-c1nc2ccccc2n1CC(=O)NC1CCCCC1 | 5.45 | 232 µM (≈ 79 µg/mL) | –
Nc1nonc1-c1nc2ccccc2n1CC(=O)Nc1ccc(CC(=O)N2CCOCC2)cc1 | 6.91 | 951 µM (≈ 439 µg/mL) | –
C[C@]12CC[C@H]3[C@@H](CCC4=CC(=O)CC[C@@]43C)[C@@H]1CC[C@@H]2O [TESTOSTERONE] | – | – | remaining at 0.2133 h, 2 µM [3]: 50%
CN1CCN(c2cccc(NC(=O)Cn3c(-c4nonc4N)nc4ccccc43)c2)CC1 | 7.71 | 2820 µM (≈ 1220 µg/mL) | Activity [4]: Non-Toxic; Activity [5]: Non-Toxic; Activity (PC-12 [6]): Dose-Dependent Effect; Activity (HT-22 [7]): Active; pIC50 (Cholinesterase [8]): 6.92; viability at 100 µM (HT-22 [9]): 89.5%; metabolised at 1 h, 2 µM [10]: < 15%; Papp at 18 h, 50 ug/ml [11]: 3.57 ×10⁻⁶ cm/s; viability at 24 h, 100 µM [12]: 102%; viability at 100 µM (PC-12 [13]): 82.6%; pIC50 (SH-SY5Y [14]): 4.99; pIC50 (BV-2 [15]): 4.77
Nc1nonc1-c1nc2ccccc2n1CC(=O)Nc1cncc(Br)c1 | 7.81 | 476 µM (≈ 197 µg/mL) | pIC50 (Cholinesterase [8]): 6.92
CN1CCN(C(=O)Cc2cccc(NC(=O)Cn3c(-c4nonc4N)nc4ccccc43)c2)CC1 | 5.71 | 1330 µM (≈ 631 µg/mL) | –
Nc1nonc1-c1nc2ccccc2n1CC(=O)Nc1ccc(N2CCCCC2)cc1 | 6.77 | 86.2 µM (≈ 36 µg/mL) | –
Nc1nonc1-c1nc2ccccc2n1CC(=O)Nc1cncc(F)c1 | 7.00 | 512 µM (≈ 181 µg/mL) | –
CN1CCN(C(=O)c2ccc(NC(=O)Cn3c(-c4nonc4N)nc4ccccc43)cc2)CC1 | 7.08 | 1020 µM (≈ 471 µg/mL) | –
Nc1nonc1-c1nc2ccccc2n1CC(=O)Nc1ccccn1 | 5.88 | 322 µM (≈ 108 µg/mL) | –
Nc1nonc1-c1nc2ccccc2n1CC(=O)Nc1cccc(C(=O)O)c1 | 5.70 | ≥ 5290 µM | –
Nc1nonc1-c1nc2ccccc2n1CC(=O)Nc1cncc(Cl)c1 | 7.50 | 462 µM (≈ 171 µg/mL) | –
Nc1nonc1-c1nc2ccccc2n1CC(=O)Nc1ccc(C(=O)N2CCOCC2)cc1 | 7.17 | 467 µM (≈ 209 µg/mL) | –
Nc1nonc1-c1nc2ccccc2n1CC(=O)Nc1cccc(CC(=O)N2CCOCC2)c1 | 6.71 | 728 µM (≈ 336 µg/mL) | –
CN1CCN(Cc2ccc(NC(=O)Cn3c(-c4nonc4N)nc4ccccc43)cc2)CC1 | 7.00 | 2660 µM (≈ 1190 µg/mL) | –
CN1CCN(c2ccc(NC(=O)Cn3c(-c4nonc4N)nc4ccccc43)cc2)CC1 | 7.03 | 1360 µM (≈ 588 µg/mL) | –

Structure (SMILES) | pIC50 (Cholinesterase [1]) | solubility at 24 h [2] | further results
Nc1nonc1-c1nc2ccccc2n1CC(=O)Nc1ccccc1N1CCOCC1 | 5.61 | 536 µM (≈ 225 µg/mL) | –
COC(=O)c1ccnc(NC(=O)Cn2c(-c3nonc3N)nc3ccccc32)c1 | 7.48 | 175 µM (≈ 68.8 µg/mL) | –
Nc1nonc1-c1nc2ccccc2n1CC(=O)Nc1cccc(N2CCCC2)c1 | 8.25 | 104 µM (≈ 42 µg/mL) | pIC50 (Cholinesterase [8]): 8.65
Nc1nonc1-c1nc2ccccc2n1CC(=O)Nc1cncc(C(F)(F)F)c1 | 7.02 | 660 µM (≈ 266 µg/mL) | –
Nc1nonc1-c1nc2ccccc2n1CC(=O)Nc1ccc(CN2CCOCC2)cc1 | 7.85 | 3050 µM (≈ 1320 µg/mL) | Activity [4]: Non-Toxic; viability at 100 µM (SH-SY5Y [16]): 131%; Activity [5]: Non-Toxic; Activity (PC-12 [6]): Dose-Dependent Effect; viability at 100 µM (BV-2 [17]): 78.2%; pIC50 (Cholinesterase [8]): 6.97; viability at 100 µM (HT-22 [9]): 66.5%; Activity (SH-SY5Y [18]): Dose-Dependent Effect; metabolised at 1 h, 2 µM [10]: < 15%; Papp at 18 h, 50 ug/ml [11]: 5.38 ×10⁻⁶ cm/s; viability at 24 h, 100 µM [12]: 114%; viability at 100 µM (PC-12 [13]): 101%
Nc1nonc1-c1nc2ccccc2n1CC(=O)Nc1ccncc1 | 6.76 | 474 µM (≈ 159 µg/mL) | –
Nc1c2c(nc3ccccc13)CCCC2 [TACRINE] | – | 1440 µM (≈ 285 µg/mL) | –
Nc1nonc1-c1nc2ccccc2n1CC(=O)Nc1cccc(N2CCCCC2)c1 | 8.33 | 74.3 µM (≈ 31 µg/mL) | pIC50 (Cholinesterase [8]): 7.67
Nc1nonc1-c1nc2ccccc2n1CC(=O)Nc1cccc(N2CCOCC2)c1 | 7.31 | 1270 µM (≈ 534 µg/mL) | –
Nc1nonc1-c1nc2ccccc2n1CC(=O)Nc1cnc2ccccc2c1 | – | 231 µM (≈ 89 µg/mL) | Tmax [19]: 0.158 h
N#Cc1cc(Br)cc(NC(=O)Cn2c(-c3nonc3N)nc3ccccc32)c1 | – | 379 µM (≈ 166 µg/mL) | Tmax [19]: 0.18 h; AUC(0-t) [20]: 3360 ng·h/mL; MRT inf [21]: 7.37 h; bioavailability [22]: 23.6%; AUC(0-inf) [23]: 3780 ng·h/mL; half-life [24]: 4.74 h; Cmax [25]: 975.05 ng/mL
COc1cc2c(cc1OC)C(=O)C(CC1CCN(Cc3ccccc3)CC1)C2 (configuration not stated) | – | – | Activity (Mus musculus [26]): Active; Activity (Mus musculus [27]): Active
COC(=O)c1cncc(NC(=O)Cn2c(-c3nonc3N)nc3ccccc32)c1 | 7.37 | 211 µM (≈ 83 µg/mL) | –
CN1CCN(c2ccccc2NC(=O)Cn2c(-c3nonc3N)nc3ccccc32)CC1 | 6.28 | 483 µM (≈ 209 µg/mL) | –
CN1CCN(C(=O)Cc2ccc(NC(=O)Cn3c(-c4nonc4N)nc4ccccc43)cc2)CC1 | 6.22 | 1770 µM (≈ 842 µg/mL) | –
Nc1nonc1-c1nc2ccccc2n1CC(=O)Nc1ccc(N2CCOCC2)cc1 | 6.32 | 861 µM (≈ 361 µg/mL) | –

Source: ChEMBL document CHEMBL5506004, “Optimizing drug-like properties of selective butyrylcholinesterase inhibitors for cognitive improvement: Enhancing aqueous solubility by disrupting molecular plane” (Eur J Med Chem, 2024)
